Test results reported in patent publication US5602106A, “16-membered macrolide derivatives” (priority 1993, dated 1997).
≈ marks a conversion by molar mass, not a printed value.

Assays:
S. aureus M133 = assay: MIC, agar plate dilution method; assay type: cell-based; conditions: Staphylococcus aureus, M133, 20 h, read-out: Antimicrobial activity (MIC), 37° C., 20 hours, SDA with 5% horse blood
Procedure: (§1) The effect of the first aspect of the present invention resides in the creation of a novel and useful 16-membered macrolide derivative. Antimicrobial activities of the compounds of the present invention were determined by measuring minimum inhibitory concentration (MIC). Minimum inhibitory concentration was determined by the agar plate dilution method in the following manner.
(§2) Test strains were subjected to seed culture using Sensitivity test broth (STB, Nissui Pharmaceutical) except that the strains belonging to the genus Streptococcus, Branhamella and Haemophilus were cultured on blood agar plate. A 5 μl portion of cell suspension of the test strains having about 10^6 CFU/ml was inoculated into Sensitivity disk agar (SDA, Nissui Pharmaceutical) supplemented with 5% horse blood and incubated at 37° C. for 20 hours. Then, MIC was measured. […] Antimicrobial activities in vitro of the compounds (1) and (2) are shown in Table 1, and those of the compounds (3) and (4) in Table 3.

S. aureus MS15026 = assay: MIC, agar plate dilution method; assay type: cell-based; conditions: Staphylococcus aureus, 37° C., 20 hours, SDA with 5% horse blood, read-out: Antimicrobial activity (MIC)
Procedure: as §1, §2

E. faecalis W-73 = assay: MIC, agar plate dilution method; assay type: cell-based; conditions: Enterococcus faecalis, W73, 20 h, read-out: Antimicrobial activity (MIC)
Procedure: as §1, §2

E. coli NIHJ JC-2 = assay: MIC, agar plate dilution method; assay type: cell-based; conditions: Escherichia coli, NIHJJC2, 20 h, 37° C., SDA with 5% horse blood, read-out: Antimicrobial activity (MIC)
Procedure: as §1, §2

S. aureus M126 = assay: MIC, agar plate dilution method; assay type: cell-based; conditions: Staphylococcus aureus, 37° C., 20 hours, SDA with 5% horse blood, read-out: Antimicrobial activity (MIC)
Procedure: as §1, §2

S. epidermidis ATCC14990 = assay: MIC, agar plate dilution method; assay type: cell-based; conditions: Staphylococcus epidermidis, ATCC14990, 20 h, read-out: Antimicrobial activity (MIC), 37° C., 20 hours, SDA with 5% horse blood
Procedure: as §1, §2

B. catarrhalis W-0506 = assay: MIC, agar plate dilution method; assay type: cell-based; conditions: Moraxella catarrhalis, W0506; 37° C., 20 hours, SDA with 5% horse blood; read-out: Antimicrobial activity (MIC)
Procedure: as §1, §2

S. aureus MS15009/pMS99 = assay: MIC, agar plate dilution method; assay type: cell-based; conditions: Staphylococcus aureus, MS15009/PMS99, 20 h, read-out: Antimicrobial activity (MIC)
Procedure: as §1, §2

S. pyogenes Cook = assay: MIC, agar plate dilution method; assay type: cell-based; conditions: Streptococcus pyogenes, 20 h, read-out: Antimicrobial activity (MIC), 37° C., 20 hours, SDA with 5% horse blood
Procedure: as §1, §2

H. influenzae 9334 = assay: MIC, agar plate dilution method; assay type: cell-based; conditions: Haemophilus influenzae, 9334, 20 h, read-out: Antimicrobial activity (MIC), 37° C., 20 hours, SDA with 5% horse blood
Procedure: as §1, §2

H. influenzae Type b = assay: MIC, agar plate dilution method; assay type: cell-based; conditions: Haemophilus influenzae, 20 h, read-out: Antimicrobial activity (MIC), 37° C., 20 hours, SDA with 5% horse blood
Procedure: as §1, §2

M. luteus ATCC9341 = assay: MIC, agar plate dilution method; assay type: cell-based; conditions: Micrococcus luteus, ATCC9341, 20 h, read-out: Antimicrobial activity (MIC), 37° C., 20 hours, SDA with 5% horse blood
Procedure: as §1, §2

S. aureus 209P JC-1 = assay: MIC, agar plate dilution method; assay type: cell-based; conditions: Staphylococcus aureus, 209P, 20 h, read-out: Antimicrobial activity (MIC), 37° C., 20 hours, SDA with 5% horse blood
Procedure: as §1, §2

S. pneumoniae Type 1 = assay: MIC, agar plate dilution method; assay type: cell-based; conditions: Streptococcus pneumoniae, TYPE1, 20 h, read-out: Antimicrobial activity (MIC), 37° C., 20 hours, SDA with 5% horse blood
Procedure: as §1, §2

S. aureus MS15009/pMS98 = assay: MIC, agar plate dilution method; assay type: cell-based; conditions: Staphylococcus aureus, MS15009/PMS98, 20 h, read-out: Antimicrobial activity (MIC), 37° C., 20 hours, SDA with 5% horse blood
Procedure: as §1, §2

K. pneumoniae PCI602 = assay: MIC, agar plate dilution method; assay type: cell-based; conditions: Klebsiella pneumoniae, PCI602, 20 h, 37° C., SDA with 5% horse blood, read-out: Antimicrobial activity (MIC)
Procedure: as §1, §2

S. pneumoniae IP692 = assay: MIC, agar plate dilution method; assay type: cell-based; conditions: Streptococcus pneumoniae, IP692, 20 h, read-out: Antimicrobial activity (MIC), 37° C., 20 hours, SDA with 5% horse blood
Procedure: as §1, §2

S. aureus MS15027 = assay: MIC, agar plate dilution method; assay type: cell-based; conditions: Staphylococcus aureus, MS15027, 20 h, read-out: Antimicrobial activity (MIC), 37° C., 20 hours, SDA with 5% horse blood
Procedure: as §1, §2

B. catarrhalis W-0500 = assay: MIC, agar plate dilution method; assay type: cell-based; conditions: Moraxella catarrhalis, W0500; 37° C., 20 hours, SDA with 5% horse blood; read-out: Antimicrobial activity (MIC)
Procedure: as §1, §2

[1] = literature; cited from earlier work
Branhamella catarrhalis = assay: Antimicrobial activity in vitro; assay type: cell-based; conditions: vs compound (5)
Procedure: as §1, §2

test strains = assay: Antimicrobial activity in vitro, test strains overall; assay type: cell-based; conditions: for antimicrobial activities in vitro compared with miokamycin: vs miokamycin (MOM)
Procedure: as §1, §2

[2] = test system: Streptococcus pneumoniae DP-1 Type 1; assay: Infection-treating test in mice; assay type: in vivo
Description: The compounds represented by the formula (I) exert excellent in vivo effects in infection-treating tests in mice in comparison with the case of currently known 16-membered macrolide antimicrobial agents. […] Such an excellent effect is related not to the ester bonding of the tertiary hydroxyl group at the 3"-position with an acyl group but directly to its ether bonding with a methyl group. […] In this connection, it has been reported that an isovaleryl group linked to a hydroxyl group at the 4"-position cannot easily be cleaved in rat blood plasma when compared with a propionyl group [Yakugaku Zasshi, 102(8), 781 (1982)].

For `CCC(=O)O[C@@H]1CC(=O)O[C@H](C)C/C=C/C=C/[C@H](OC(C)=O)[C@H](C)C[C@H](CC=O)[C@H](O[C@@H]2O[C@H](C)[C@@H](O[C@H]3C[C@@](C)(OC(C)=O)[C@@H](OC(=O)CC)[C@H](C)O3)[C@H](N(C)C)[C@H]2O)[C@H]1OC` [MOM, miokamycin, reference compound], the MIC (S. aureus M133) was 0.78 µg/mL (≈ 0.869 µM), the MIC (S. aureus MS15026) was > 100 µg/mL and the MIC (E. faecalis W-73) was 6.25 µg/mL (≈ 6.96 µM). The MIC (E. coli NIHJ JC-2) was > 100 µg/mL, the MIC (S. aureus M126) was > 100 µg/mL and the MIC (S. epidermidis ATCC14990) was 0.78 µg/mL (≈ 0.869 µM). For the same compound, the MIC (B. catarrhalis W-0506) was 1.56 µg/mL (≈ 1.74 µM), the MIC (S. aureus MS15009/pMS99) was > 100 µg/mL and the MIC (S. pyogenes Cook) was 0.2 µg/mL (≈ 0.223 µM). The MIC (H. influenzae 9334) was 6.25 µg/mL (≈ 6.96 µM), the MIC (H. influenzae Type b) was 50 µg/mL (≈ 55.7 µM) and the MIC (M. luteus ATCC9341) was 0.1 µg/mL (≈ 0.111 µM). For the same compound, the MIC (S. aureus 209P JC-1) was 0.39 µg/mL (≈ 0.434 µM), the MIC (S. pneumoniae Type 1) was 0.2 µg/mL (≈ 0.223 µM) and the MIC (S. aureus MS15009/pMS98) was 0.78 µg/mL (≈ 0.869 µM). For the same compound, the MIC (K. pneumoniae PCI602) was > 100 µg/mL, the MIC (S. pneumoniae IP692) was 0.2 µg/mL (≈ 0.223 µM) and the MIC (S. aureus MS15027) was 0.78 µg/mL (≈ 0.869 µM). For the same compound, the MIC (B. catarrhalis W-0500) was 1.56 µg/mL (≈ 1.74 µM) and the “metabolism and loss of antimicrobial activity after oral administration” value [1] was “an acyl group of a neutral sugar moiety of the administered drug is cleaved with time and antimicrobial activities of the drug itself therefore is reduced gradually”.
With `CO[C@@H]1[C@@H](O[C@@H]2O[C@H](C)[C@@H](O[C@H]3C[C@@](C)(OC)[C@@H](OC(=O)CC(C)C)[C@H](C)O3)[C@H](N(C)C)[C@H]2O)[C@@H](CC=O)C[C@@H](C)[C@@H](OC(C)=O)/C=C/C=C/C[C@@H](C)OC(=O)C[C@H]1OC(C)=O` [(11), 9-O-acetyl-3"-O-methyljosamycin] the “antimicrobial activity against Branhamella catarrhalis compared with compound (5)” value (Branhamella catarrhalis) was “slightly superior to that of the compound (5)” and the “antimicrobial activities in vitro compared with miokamycin” value (test strains) was “comparable to or higher”.
For `CCC(=O)O[C@@H]1CC(=O)O[C@H](C)C/C=C/C=C/[C@H](OC(C)=O)[C@H](C)C[C@H](CC=O)[C@H](O[C@@H]2O[C@H](C)[C@@H](O[C@H]3C[C@@](C)(OC)[C@@H](OC(=O)CC)[C@H](C)O3)[C@H](N(C)C)[C@H]2O)[C@H]1OC` [(5), 9-O-acetyl-3"-O-methylmidecamycin A1], the “antimicrobial activities compared with starting materials (1), (2) and (33)” value (test strains; 9-O-acylated vs free 9-hydroxyl) was “strong antimicrobial activities by themselves though slightly lower than those of their starting materials”, the “antimicrobial activities in vitro compared with miokamycin” value (test strains) was “comparable to or higher” and the “amount giving a coordinate infection-treating effect relative to miokamycin” value ([2]; fraction of miokamycin amount) was 1/4. For the same compound, the “amount giving a coordinate infection-treating effect relative to rokitamycin” value ([2]; fraction of rokitamycin amount) was 1/8.
